Consider 3 molecules from US10271540B2, “Medical fluid, a method of treatment and use of the fluid” (XVIVO PERFUSION AB, priority 2010, dated 2019).

For series [1] the following is noted: circulating in blood, metabolized by the liver; cited from earlier work.
Another series deals with alpha-1. Nature of the series: potency of alpha-1-agonist relative to noradrenaline. The source says:
For example, phenylephrine is an alpha-1-agonist and may replace noradrenaline.

Each structure is given as a SMILES string.

For `CNCC(O)c1ccc(O)c(O)c1` (stereo not drawn) [adrenaline], the half-life entry in series [1] is “approximately a few minutes”.

With `NC[C@H](O)c1ccc(O)c(O)c1` [noradrenaline], the half-life entry in series [1] is listed as “approximately a few minutes”.

As for `CNC[C@H](O)c1cccc(O)c1` [phenylephrine], the “times less potent than noradrenaline” value in the series with alpha-1 is “about 5 times”.
